One compound from patent US7195769B2, “Pharmaceutical compositions of anti-tubercular drugs and process for their preparation” (Panacea Biotec Limited, priority 2000, dated 2007) can be followed below.

Molecules are shown by their SMILES.

A short description of this series: pH dependence of rifampicin degradation in presence of isoniazid. It counts as physicochemical. The source says: Thereafter, above pH 3 the degradation is minimal.

Turning to `CO[C@H]1/C=C/O[C@@]2(C)Oc3c(C)c(O)c4c(O)c(c(/C=N/N5CCN(C)CC5)c(O)c4c3C2=O)NC(=O)/C(C)=C\C=C\[C@H](C)[C@H](O)[C@@H](C)[C@@H](O)[C@@H](C)[C@H](OC(C)=O)[C@@H]1C` [rifampicin], the “degradation of rifampicin in presence of isoniazid” value runs as follows: (above pH 3) “minimal”; (pH around 1) “minimum”; (pH between 2 and 3) “increases abruptly”.
